# From patent US20100099756A1, “USES OF INCENSOLE, INCENSOLE ACETATE AND DERIVATIVES THEREOF” (YISSUM RESEARCH DEVELOPMENT COMPANY OF THE HEBREW …, priority 2006, published 2010)
# Legend:
# IκBα degradation = IκBα degradation in TNFα-stimulated HeLa cells (Western blot); assay type: cell-based; settings: HeLa cells pre-incubated 2 hrs, then TNFα 20 ng/ml for 20 minutes
# Method: HeLa cells were pre-incubated with IA (FIG. 1A) or IN (FIG. 1B) at the indicated concentrations for 2 hrs prior to 20 minutes exposure to TNFα (20 ng/ml). At least three more experiments were repeated with highest indicated dose, resulting similarly.
# IκBα Degradation. HeLa cells were pre-incubated with IA (50 μg/ml, dissolved in ethanol) for 2 hrs, and then stimulated for 20 minutes with TNFα (20 ng/ml, Emeryville, Calif., USA). After removing the slides from plates for immonostaining (see below), proteins were extracted from remaining cells in the plates. Proteins were extracted from cells in NP-40 lysis buffer. Total protein concentration was determined using the Bradford method. Lysates were then analyzed either by Western blotting (WB).
# Western Blot (WB). Following separation by SDS-PAGE, proteins were blotted to a polyvinylidene difluoride (PVDF) membrane (Millipore). The membrane was blocked in 5% (w/v) milk powder and then incubated in TBST containing the primary antibody and 2% (w/v) milk powder. All phospho-specific antibodies were purchased from Cell signaling Inc. αIκBa, αp65 and αCOX2 antibodies from Santa Cruz Inc. (California, USA). After binding of an appropriate secondary antibody coupled to horseradish peroxidase, proteins were visualized by enhanced chemiluminiscence according to the instructions of the manufacturer (Amersham Lifescience).
# [1] = tested on: IKKα and IKKβ phosphorylation; test: TNFα-induced phosphorylation of the IKKs in HeLa cells; assay type: cell-based; settings: TNFα 20 ng/ml for 20 minutes, IA 140 μM
# Method: (A) IA inhibits IKK phosphorylation. HeLa cells were stimulated with TNFα (20 ng/ml for 20 minutes) in the absence or presence of IA (140 μM) as shown. Whole cell extracts were prepared and analyzed for the phosphoryation of IKKα and IKKβ by Western blotting (WB). (B) HeLa cells were stimulated with TNFα (20 ng/ml for 20 minutes) in the absence or presence of IA (140 μM). Cells were fixed and then stained with rabbit anti-p65 followed by anti-rabbit Rhodamine Red-labeled secondary Ab. and with DAPI for nuclei location (not shown). (B1) HeLa cells, no treatment; (B2) HeLa cells +IA; (B3) HeLa cells +TNF; (B4) HeLa cells +IA+TNF. The cells were examined under an Axioscope Zeiss microscope with a plan-Neofluor * 60 lens. Results of one of three independent experiments are shown.
# Western Blot (WB). Following separation by SDS-PAGE, proteins were blotted to a polyvinylidene difluoride (PVDF) membrane (Millipore). The membrane was blocked in 5% (w/v) milk powder and then incubated in TBST containing the primary antibody and 2% (w/v) milk powder. All phospho-specific antibodies were purchased from Cell signaling Inc. αIκBa, αp65 and αCOX2 antibodies from Santa Cruz Inc. (California, USA). […]
# TNF-α and IL-1β mRNA = test: IL-1β and TNFα mRNA expression after CHI (real-time PCR); assay type: in vivo, mice; settings: 3 hours after CHI, 50 mg/kg, relative to β-actin, P<0.05
# Method: IL-1β and TNFα mRNA levels were quantified 3 hours post-injury by real time polymarerase chain reaction. β-actin was used as endogenous control. *p<0.05 vs. vehicle, as determined by student's t-tests.
# The mRNA levels of these cytokines were quantified at 3 hours after CHI using real-time PCR.
# General toxicity in mice = assay type: in vivo; settings: single dose 150 mg/kg and 30 mg/kg 3 times a week for a month
# mouse TRPV3-YFP = target: T1, mouse TRPV3-YFP (Mus musculus, UniProt Q8K424); test: Calcium imaging of HEK293 cells expressing mouse TRPV3-YFP; assay type: cell-based
# T1 construct: expressed in transfected cells
# T1 sequence (Q8K424 1-791): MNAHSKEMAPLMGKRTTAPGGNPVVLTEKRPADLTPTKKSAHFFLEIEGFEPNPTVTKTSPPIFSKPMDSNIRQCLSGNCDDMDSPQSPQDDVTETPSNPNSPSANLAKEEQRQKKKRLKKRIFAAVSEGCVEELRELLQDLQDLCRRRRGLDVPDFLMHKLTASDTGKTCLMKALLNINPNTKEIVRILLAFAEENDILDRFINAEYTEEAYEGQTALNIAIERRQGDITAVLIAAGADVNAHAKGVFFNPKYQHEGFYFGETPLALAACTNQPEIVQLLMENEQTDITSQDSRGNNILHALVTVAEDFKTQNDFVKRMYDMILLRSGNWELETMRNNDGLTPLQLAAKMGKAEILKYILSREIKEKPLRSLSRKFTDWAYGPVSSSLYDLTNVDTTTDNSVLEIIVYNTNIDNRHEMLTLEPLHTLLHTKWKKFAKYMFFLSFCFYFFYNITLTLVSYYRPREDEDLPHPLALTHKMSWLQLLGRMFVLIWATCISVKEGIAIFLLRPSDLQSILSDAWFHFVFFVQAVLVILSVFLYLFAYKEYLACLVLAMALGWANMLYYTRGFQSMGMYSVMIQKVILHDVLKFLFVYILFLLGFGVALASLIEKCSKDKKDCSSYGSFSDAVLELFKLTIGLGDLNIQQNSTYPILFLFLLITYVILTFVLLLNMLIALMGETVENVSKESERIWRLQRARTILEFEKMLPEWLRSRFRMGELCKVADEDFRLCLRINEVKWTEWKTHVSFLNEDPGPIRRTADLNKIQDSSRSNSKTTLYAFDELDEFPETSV
# Method: All error bars indicate SEM; p values in all subfigures but c represent analysis with one-way ANOVA Bonferroni's post hoc.
# TRPV3-YFP [O'dell, D. K., Rimmerman, N., Pickens, S. R. & Walker J. M. Fatty acyl amides of endogenous tetrahydroisoquinolines are active at the recombinant human TRPV1 receptor. […] Med. Chem. 15, 6164-6169 (2007)], TRPV4 and mock-transfected cell lines were cultured in DMEM 1× with L-glutamine (Mediatech, Inc. Herndon, Va.), containing 1% penicillin-streptomycin (Invitrogen, Carlsbad, Calif.) and 10% foetal bovine serum.
# Calcium imaging of HEK 293 cells. TRPV1, TRPV3, and TRPV4 expressing HEK293 cells were plated 24-48 h before imaging in 96 well plates, loaded with 3 μM Fura-2 AM and imaged as previously described [O'dell, D. K., Rimmerman, N., Pickens, S. R. & Walker J. M. Fatty acyl amides of endogenous tetrahydroisoquinolines are active at the recombinant human TRPV1 receptor. […] Med. Chem. 15, 6164-6169 (2007)].
# For single cell calcium imaging, HEK293-rat TRPV2 and HEK293-mouse TRPV3-YFP expressing cells were plated on collagen-coated glass cover slips. Cells were loaded for 60 min with 3 μM Fura-2 AM.
# Data analysis of calcium imaging data. Analysis of calcium imaging data was done using a non-linear regression curve fit (Graphpad 4 Prism, San Diego, Calif.). t tests and one way ANOVA were calculated using SPSS (Chicago, Ill.). In the keratinocyte experiments, drug-induced response for each cell was taken as the maximal post-drug measurements over time minus the average of the last 5 pre-drug measurements. Averaged drug responses over 30 randomly selected cells per coverslip were analyzed with two-tailed unpaired t tests.
# [2] = tested on: receptors known to be involved in psychoactivity; test: Interaction with receptors involved in psychoactivity
compound,measurement,setting,value
"CC(=O)OC1CC/C(C)=C/CC/C(C)=C/CC2(C(C)C)CCC1(C)O2 (stereo not shown) [IA, incensole acetate]",IκBα degradation,IκBα degradation,inhibited IκBα degradation in a dose dependent manner
same,IKKα/IKKβ phosphorylation,[1],inhibition of IKKα/IKKβ phosphorylation
same,IL-1β mRNA expression,TNF-α and IL-1β mRNA,significantly inhibited mRNA expression
same,TNF-α mRNA expression,TNF-α and IL-1β mRNA,significantly inhibited mRNA expression
same,weight loss,General toxicity in mice,No weight loss was observed
same,calcium influx vs vehicle,"mouse TRPV3-YFP; IA 100 μM, 2-APB positive control",significantly increased calcium influx
same,calcium influx Hill slope,mouse TRPV3-YFP; calcium in the extracellular media,2.2
same,EC50,"mouse TRPV3-YFP; calcium in the extracellular media, read-out: calcium influx EC50",16 µM
same,calcium increase with calcium removed from the extracellular medium,mouse TRPV3-YFP; no extracellular calcium,significantly reduced
same,interaction with receptors known to be involved in psychoactivity,[2],does not interact
